Literature values, collected in PMC3171802 (Chemistry & biology, 2011).

Test system: Ba/F3 cells transformed to IL-3 independence by overexpression of PIM1 or PIM2
Conditions: ref Pogacic et al., 2007

Structure (SMILES): CC(=O)c1cccc(-c2cnc3ccc(NCC4CC4)nn23)c1 [Compound K00135]
- survival of Ba/F3 cells transformed by PIM1 or PIM2: significantly impaired survival
